Reference: patent US12077503B2, “Substituted cyclic amides and their use as herbicides” (FMC CORPORATION, priority 2015, dated 2024)

Columns and labels:
Assay type in all cases: in vivo
[1] = tested on: Galium (catchweed bedstraw, Galium aparine); experiment: Test C preemergence; conditions: for Plant response rating, Galium: scale 0 to 100, 0 no effect, 100 complete control
How it was run: (§1)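 Visual rating, 0–100 scale (0 = no effect, 100 = complete control) versus controls, 13–15 d after treatment. Compounds in non-phytotoxic solvent plus surfactant; applied preemergence to seeds in loam/sand soil or postemergence to 1- to 4-leaf plants (2–18 cm) in peat/vermiculite medium; greenhouse-held.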

[2] = tested on: barnyardgrass (Echinochloa crus-galli); experiment: Test C preemergence; conditions: for Plant response rating, Barnyardgrass: scale 0 to 100, 0 no effect, 100 complete control
How it was run: as §1

[3] = tested on: blackgrass (Alopecurus myosuroides); experiment: Test C preemergence; conditions: for Plant response rating, Blackgrass: scale 0 to 100, 0 no effect, 100 complete control
How it was run: as §1

corn (Zea mays) = experiment: Test C preemergence; conditions: for Plant response rating, Corn: scale 0 to 100, 0 no effect, 100 complete control
How it was run: as §1

[4] = tested on: crabgrass, large (large crabgrass, Digitaria sanguinalis); experiment: Test C preemergence; conditions: for Plant response rating, Crabgrass, Large: scale 0 to 100, 0 no effect, 100 complete control
How it was run: as §1

[5] = tested on: johnsongrass (Sorghum halepense); experiment: Test C preemergence; conditions: for Plant response rating, Johnsongrass: scale 0 to 100, 0 no effect, 100 complete control
How it was run: as §1

[6] = tested on: lambsquarters (Chenopodium album); experiment: Test C preemergence; conditions: for Plant response rating, Lambsquarters: scale 0 to 100, 0 no effect, 100 complete control
How it was run: as §1

[7] = tested on: morningglory (Ipomoea coccinea); experiment: Test C preemergence; conditions: for Plant response rating, Morningglory: scale 0 to 100, 0 no effect, 100 complete control
How it was run: as §1

[8] = tested on: nutsedge, yellow (yellow nutsedge, Cyperus esculentus); experiment: Test C preemergence; conditions: for Plant response rating, Nutsedge, Yellow: scale 0 to 100, 0 no effect, 100 complete control
How it was run: as §1

[9] = tested on: oilseed rape (Brassica napus); experiment: Test C preemergence; conditions: for Plant response rating, Oilseed Rape: scale 0 to 100, 0 no effect, 100 complete control
How it was run: as §1

[10] = tested on: pigweed (Amaranthus retroflexus); experiment: Test C preemergence; conditions: for Plant response rating, Pigweed: scale 0 to 100, 0 no effect, 100 complete control
How it was run: as §1

[11] = tested on: ragweed (common ragweed, Ambrosia elatior); experiment: Test C preemergence; conditions: for Plant response rating, Ragweed: scale 0 to 100, 0 no effect, 100 complete control
How it was run: as §1

[12] = tested on: ryegrass, Italian (Italian ryegrass, Lolium multiflorum); experiment: Test C preemergence; conditions: for Plant response rating, Ryegrass, Italian: scale 0 to 100, 0 no effect, 100 complete control
How it was run: as §1

soybean (Glycine max) = experiment: Test C preemergence
How it was run: as §1

[13] = tested on: velvetleaf (Abutilon theophrasti); experiment: Test C preemergence; conditions: for Plant response rating, Velvetleaf: scale 0 to 100, 0 no effect, 100 complete control
How it was run: as §1

[14] = tested on: waterhemp (common waterhemp, Amaranthus rudis); experiment: Test C preemergence; conditions: for Plant response rating, Waterhemp: scale 0 to 100, 0 no effect, 100 complete control
How it was run: as §1

[15] = tested on: wheat (winter wheat, Triticum aestivum); experiment: Test C preemergence; conditions: for Plant response rating, Wheat: scale 0 to 100, 0 no effect, 100 complete control
How it was run: as §1

[16] = tested on: barnyardgrass (Echinochloa crus-galli); experiment: Test C flooded paddy test; conditions: Flood; for Plant response rating (scale of 0 to 100), Barnyardgrass: 0 is no effect, 100 is complete control
How it was run: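 Test compounds were dosed straight into the flood water of pots holding 2-leaf-stage plants, with water kept 3 cm above the soil. Greenhouse plants were scored visually against controls after 13 to 15 d, from 0 (no effect) to 100 (complete control).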

[17] = 31 g ai/ha, 0 is no effect, 100 is complete control

Cc1ccc(C2CN(C)C(=O)C2C(=O)Nc2ccccc2F)cc1F (stereo not shown) [Compound 465]
Plant response rating (scale of 0 to 100), Galium [1, 17]: 80 | Plant response rating, Galium ([1]; 62 g ai/ha): 85 | Plant response rating, Galium ([1]; 125 g ai/ha): 90 | Plant response rating, Galium ([1]; 250 g ai/ha): 98 | Plant response rating (scale of 0 to 100), Barnyardgrass [2, 17]: 90 | Plant response rating, Barnyardgrass ([2]; 62 g ai/ha): 95 | Plant response rating, Barnyardgrass ([2]; 125 g ai/ha): 98 | Plant response rating, Barnyardgrass ([2]; 250 g ai/ha): 100 | Plant response rating (scale of 0 to 100), Blackgrass [3, 17]: 20 | Plant response rating, Blackgrass ([3]; 62 g ai/ha): 50 | Plant response rating, Blackgrass ([3]; 125 g ai/ha): 80 | Plant response rating, Blackgrass ([3]; 250 g ai/ha): 90 | Plant response rating (scale of 0 to 100), Corn (corn (Zea mays); [17]): 40 | Plant response rating, Corn (corn (Zea mays); 62 g ai/ha): 55 | Plant response rating, Corn (corn (Zea mays); 125 g ai/ha): 65 | Plant response rating, Corn (corn (Zea mays); 250 g ai/ha): 90 | Plant response rating (scale of 0 to 100), Crabgrass, Large [4, 17]: 100 | Plant response rating, Crabgrass, Large ([4]; 62 g ai/ha): 100 | Plant response rating, Crabgrass, Large ([4]; 125 g ai/ha): 100 | Plant response rating, Crabgrass, Large ([4]; 250 g ai/ha): 100 | Plant response rating (scale of 0 to 100), Johnsongrass [5, 17]: 10 | Plant response rating, Johnsongrass ([5]; 62 g ai/ha): 65 | Plant response rating, Johnsongrass ([5]; 125 g ai/ha): 80 | Plant response rating, Johnsongrass ([5]; 250 g ai/ha): 85 | Plant response rating (scale of 0 to 100), Lambsquarters [6, 17]: 75 | Plant response rating, Lambsquarters ([6]; 62 g ai/ha): 75 | Plant response rating, Lambsquarters ([6]; 125 g ai/ha): 85 | Plant response rating, Lambsquarters ([6]; 250 g ai/ha): 100 | Plant response rating (scale of 0 to 100), Morningglory [7, 17]: 5 | Plant response rating, Morningglory ([7]; 62 g ai/ha): 20 | Plant response rating, Morningglory ([7]; 125 g ai/ha): 25 | Plant response rating, Morningglory ([7]; 250 g ai/ha): 50 | Plant response rating (scale of 0 to 100), Nutsedge, Yellow [8, 17]: 0 | Plant response rating, Nutsedge, Yellow ([8]; 62 g ai/ha): 0 | Plant response rating, Nutsedge, Yellow ([8]; 125 g ai/ha): 0 | Plant response rating, Nutsedge, Yellow ([8]; 250 g ai/ha): 0 | Plant response rating (scale of 0 to 100), Oilseed Rape [9, 17]: 30 | Plant response rating, Oilseed Rape ([9]; 62 g ai/ha): 10 | Plant response rating, Oilseed Rape ([9]; 125 g ai/ha): 85 | Plant response rating, Oilseed Rape ([9]; 250 g ai/ha): 90 | Plant response rating (scale of 0 to 100), Pigweed [10, 17]: 10 | Plant response rating, Pigweed ([10]; 62 g ai/ha): 25 | Plant response rating, Pigweed ([10]; 125 g ai/ha): 60 | Plant response rating, Pigweed ([10]; 250 g ai/ha): 55 | Plant response rating (scale of 0 to 100), Ragweed [11, 17]: 0 | Plant response rating, Ragweed ([11]; 62 g ai/ha): 60 | Plant response rating, Ragweed ([11]; 125 g ai/ha): 75 | Plant response rating, Ragweed ([11]; 250 g ai/ha): 80 | Plant response rating (scale of 0 to 100), Ryegrass, Italian [12, 17]: 10 | Plant response rating, Ryegrass, Italian ([12]; 62 g ai/ha): 70 | Plant response rating, Ryegrass, Italian ([12]; 125 g ai/ha): 65 | Plant response rating, Ryegrass, Italian ([12]; 250 g ai/ha): 65 | Plant response rating (scale of 0 to 100), Soybean (soybean (Glycine max); [17]): 5 | Plant response rating, Soybean (soybean (Glycine max); 250 g ai/ha, scale 0 to 100, 0 no effect, 100 complete control): 15 | Plant response rating (scale of 0 to 100), Velvetleaf [13, 17]: 15 | Plant response rating, Velvetleaf ([13]; 62 g ai/ha): 5 | Plant response rating, Velvetleaf ([13]; 125 g ai/ha): 55 | Plant response rating, Velvetleaf ([13]; 250 g ai/ha): 65 | Plant response rating (scale of 0 to 100), Waterhemp [14, 17]: 60 | Plant response rating, Waterhemp ([14]; 62 g ai/ha): 70 | Plant response rating, Waterhemp ([14]; 125 g ai/ha): 80 | Plant response rating, Waterhemp ([14]; 250 g ai/ha): 80 | Plant response rating (scale of 0 to 100), Wheat [15, 17]: 20 | Plant response rating, Wheat ([15]; 62 g ai/ha): 70 | Plant response rating, Wheat ([15]; 125 g ai/ha): 80 | Plant response rating, Wheat ([15]; 250 g ai/ha): 95 | Plant response rating, Barnyardgrass ([16]; 16 g ai/ha, scale 0 to 100 (0 no effect, 100 complete control), 13 to 15 d): 0 | Plant response rating (scale of 0 to 100), Barnyardgrass ([16]; 31 g ai/ha): 25 | Plant response rating (scale of 0 to 100), Barnyardgrass ([16]; 62 g ai/ha): 45 | Plant response rating (scale of 0 to 100), Barnyardgrass ([16]; 125 g ai/ha): 70
